In patent US20250289806A1, “COMPOUNDS FOR PROLIFERATIVE DISORDERS” (UNIVERSITY OF MIAMI, priority 2022, published 2025):
pIC50: −log10 of the molar value. Read-outs that look alike come from different tables or passages of the source. Each block holds one molecule with its values, some of them ahead of it.

What was measured:
STK17A = target: T1, STK17A (Homo sapiens, UniProt Q9UEE5); experiment: Enzymatic activity assay (Reaction Biology Corporation), STK17A; type: biochemical
T1 construct: purchased Reaction Biology Corporation
T1 sequence (Q9UEE5 1-414): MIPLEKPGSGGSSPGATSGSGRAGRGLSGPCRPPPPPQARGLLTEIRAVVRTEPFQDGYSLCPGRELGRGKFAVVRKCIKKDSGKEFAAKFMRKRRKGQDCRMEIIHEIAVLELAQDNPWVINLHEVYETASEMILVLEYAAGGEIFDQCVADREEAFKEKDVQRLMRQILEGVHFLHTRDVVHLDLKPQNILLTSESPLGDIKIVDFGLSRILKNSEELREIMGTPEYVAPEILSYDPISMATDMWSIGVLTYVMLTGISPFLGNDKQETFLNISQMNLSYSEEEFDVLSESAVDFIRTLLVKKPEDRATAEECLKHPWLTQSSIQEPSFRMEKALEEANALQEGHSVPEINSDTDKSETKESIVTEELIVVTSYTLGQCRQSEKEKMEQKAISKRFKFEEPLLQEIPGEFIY
Procedure: (§1) All enzymatic assays and panel profiling studies are activity assays, which were carried out by Reaction Biology Corporation according to the company's protocols.

RIVA = experiment: Cell viability assay, RIVA; type: cell-based
SET-2 = experiment: Cell viability assay, SET-2; type: cell-based; conditions: Homo sapiens
KMS12PE = experiment: Cell viability assay, KMS12PE; type: cell-based; conditions: Homo sapiens, KMS-12-PE
HEL = experiment: Cell viability assay, HEL; type: cell-based; conditions: Homo sapiens
DDR1 = target: T2, DDR1 (Homo sapiens, UniProt Q08345); experiment: Enzymatic activity assay (Reaction Biology Corporation), DDR1; type: biochemical
T2 construct: purchased Reaction Biology Corporation
T2 sequence (Q08345 19-913): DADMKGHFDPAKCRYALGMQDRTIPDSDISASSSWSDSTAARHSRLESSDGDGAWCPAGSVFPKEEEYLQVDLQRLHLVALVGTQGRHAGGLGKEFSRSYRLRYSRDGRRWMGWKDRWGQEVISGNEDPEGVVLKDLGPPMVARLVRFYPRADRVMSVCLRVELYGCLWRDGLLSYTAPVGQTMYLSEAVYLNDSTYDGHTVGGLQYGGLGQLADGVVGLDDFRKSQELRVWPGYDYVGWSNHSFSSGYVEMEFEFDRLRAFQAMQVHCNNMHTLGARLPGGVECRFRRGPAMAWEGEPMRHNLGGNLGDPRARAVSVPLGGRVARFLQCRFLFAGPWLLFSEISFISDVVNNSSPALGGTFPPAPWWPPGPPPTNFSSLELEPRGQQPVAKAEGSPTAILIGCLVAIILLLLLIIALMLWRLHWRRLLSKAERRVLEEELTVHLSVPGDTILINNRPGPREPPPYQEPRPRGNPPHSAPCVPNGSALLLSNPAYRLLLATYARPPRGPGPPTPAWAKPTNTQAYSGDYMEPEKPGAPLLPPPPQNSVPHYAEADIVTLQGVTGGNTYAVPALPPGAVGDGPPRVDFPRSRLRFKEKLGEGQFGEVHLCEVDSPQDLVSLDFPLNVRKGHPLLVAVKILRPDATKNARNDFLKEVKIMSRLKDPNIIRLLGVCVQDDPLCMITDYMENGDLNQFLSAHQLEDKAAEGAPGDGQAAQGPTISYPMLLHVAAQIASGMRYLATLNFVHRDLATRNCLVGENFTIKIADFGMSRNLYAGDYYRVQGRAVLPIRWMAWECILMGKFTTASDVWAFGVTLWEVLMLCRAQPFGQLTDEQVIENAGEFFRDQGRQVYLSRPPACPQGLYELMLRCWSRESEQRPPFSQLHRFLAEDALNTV
Procedure: as §1

KMS12BM = experiment: Cell viability assay, KMS12BM; type: cell-based; conditions: Homo sapiens, KMS-12-BM
MM-M1 = experiment: Cell viability assay, MM-M1; type: cell-based
Jurkat = experiment: Cell viability assay, Jurkat; type: cell-based; conditions: Homo sapiens
MOLM-13 = experiment: Cell viability assay, MOLM-13; type: cell-based; conditions: Homo sapiens
U266B1 = experiment: Cell viability assay, U266B1; type: cell-based
RS4; 11 = experiment: Cell viability assay, RS4; 11; type: cell-based; conditions: Homo sapiens
TF1 = experiment: Cell viability assay, TF1; type: cell-based; conditions: Homo sapiens, TF-1
HEK293T = experiment: Cell viability assay, HEK293T (non-cancer cell line); type: cell-based; conditions: Homo sapiens, HEK-293T
RPMI8226 = experiment: Cell viability assay, RPMI8226; type: cell-based; conditions: Homo sapiens, RPMI-8226
LP1 = experiment: Cell viability assay, LP1; type: cell-based; conditions: Homo sapiens, LP-1
THP-1 = experiment: Cell viability assay, THP-1; type: cell-based; conditions: Homo sapiens
SKMM2 = experiment: Cell viability assay, SKMM2; type: cell-based; conditions: Homo sapiens, SK-MM-2
HL-60 = experiment: Cell viability assay, HL-60; type: cell-based; conditions: Homo sapiens
OPM2 = experiment: Cell viability assay, OPM2; type: cell-based; conditions: Homo sapiens, OPM-2
MOLT4 = experiment: Cell viability assay, MOLT4; type: cell-based; conditions: Homo sapiens
MYLK4 = target: T3, MYLK4 (Homo sapiens, UniProt Q86YV6); experiment: Enzymatic activity assay (Reaction Biology Corporation), MYLK4; type: biochemical
T3 construct: purchased Reaction Biology Corporation
T3 sequence (Q86YV6 1-388): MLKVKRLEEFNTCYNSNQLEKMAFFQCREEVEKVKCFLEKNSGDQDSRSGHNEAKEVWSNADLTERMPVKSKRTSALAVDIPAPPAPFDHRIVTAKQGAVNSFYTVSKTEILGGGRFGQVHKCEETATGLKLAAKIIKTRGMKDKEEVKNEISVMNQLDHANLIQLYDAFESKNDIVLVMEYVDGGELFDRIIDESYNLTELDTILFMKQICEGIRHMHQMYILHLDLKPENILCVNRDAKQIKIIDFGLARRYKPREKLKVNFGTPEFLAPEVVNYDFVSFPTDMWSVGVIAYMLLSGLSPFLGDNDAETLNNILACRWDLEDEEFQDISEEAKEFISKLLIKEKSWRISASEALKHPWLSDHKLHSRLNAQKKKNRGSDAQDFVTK
Procedure: as §1

K562 = experiment: Cell viability assay, K562; type: cell-based; conditions: Homo sapiens
MEC-1 = experiment: Cell viability assay, MEC-1; type: cell-based; conditions: Homo sapiens, MEC1
MV-4-11 = experiment: Cell viability assay, MV-4-11; type: cell-based; conditions: Homo sapiens, MV4-11
SKNO-1 = experiment: Cell viability assay, SKNO-1; type: cell-based
OCI-AML3 = experiment: Cell viability assay, OCI-AML3; type: cell-based; conditions: Homo sapiens, OCI-AML-3
Kasumi-1 = experiment: Cell viability assay, Kasumi-1; type: cell-based; conditions: Homo sapiens
BJAB = experiment: Cell viability assay, BJAB; type: cell-based; conditions: Homo sapiens
MDSL = experiment: cells; conditions: 72 h
K562 SF3B1 K666N = experiment: cells; conditions: Homo sapiens, K562, 72 h
NALM-6 SF3B1 K666N = experiment: cells; conditions: Homo sapiens, NALM-6, 72 h
HEL92.1.7 = experiment: cells; conditions: Homo sapiens, HEL 92.1.7, 72 h
NALM-6 = experiment: cells; conditions: Homo sapiens, NALM-6, 72 h
[1] = enzymatic activity assay, read-out: IC50 STK17A
[2] = multiple myeloma (Example 90 table)
[3] = enzymatic activity assay, read-out: IC50 MYLK4
[4] = lymphoma, cell viability, 72 hours
[5] = multiple myeloma, cell viability, 72 hours

SMILES: c1cc(-c2ccc3nc(N4CCCC4)ncc3c2)nc(Nc2ccc(N3CCNCC3)cc2)n1 [Example 1, N-(4-(piperazin-1-yl)phenyl)-4-(2-(pyrrolidin-1-yl)quinazolin-6-yl)pyrimidin-2-amine]
- pIC50 (STK17A): 7.00 to 7.30
- pIC50 (MYLK4): > 7.30

SMILES: OCCN1CCC(n2cc(Nc3nccc(-c4ccc5nc(N6CCOCC6)ncc5c4)n3)cn2)CC1 [Example 29]
- pIC50 (DDR1): > 7.30
- pIC50 (STK17A; [1]): > 7.30

SMILES: OCCn1cc(Nc2nccc(-c3ccc4nc(N5CCOCC5)ncc4c3)n2)cn1 [Example 28]
- pIC50 (STK17A; [1]): > 7.30
- pIC50 (MYLK4; [3]): > 7.30

SMILES: c1cc(-c2ccc3nc(N4CCCC4)ncc3c2)nc(Nc2ccc(N3CCOCC3)cc2)n1 [Example 2]
- pIC50 (STK17A; [1]): > 7.30
- pIC50 (MYLK4): > 7.30

SMILES: CC(C)NC(=O)c1ccc(Nc2nccc(-c3ccc4nc(N5CCOCC5)ncc4c3)n2)cc1 [Example 20]
- pIC50 (DDR1): < 7.00
- pIC50 (STK17A; [1]): > 7.30
- pIC50 (MYLK4): 7.00 to 7.30

Second part, led by results:

- pIC50 (STK17A; [1]): < 7.00
SMILES: O=C(NC1CCNCC1)c1ccc(Nc2nccc(-c3ccc4nc(N5CCCC5)ncc4c3)n2)cc1 [Example 5]

- pIC50 (DDR1): > 7.30
- pIC50 (STK17A; [1]): > 7.30
- pIC50 (Jurkat; acute lymphoblastic leukemia (Example 90 table)): 5.21
- pIC50 (MOLM-13; MOLM-13, acute myeloid leukemia (Example 90 table)): 6.71
- pIC50 (U266B1; U266B1, multiple myeloma (Example 90 table)): 4.90
- pIC50 (RS4; 11; RS4-11, RS411, acute lymphoblastic leukemia (Example 90 table)): 5.00
- pIC50 (RPMI8226; RPMI8226, multiple myeloma (Example 90 table)): 5.57
- pIC50 (THP-1; THP-1, acute myeloid leukemia (Example 90 table)): 5.94
- pIC50 (SKMM2; SKMM2, multiple myeloma (Example 90 table)): 5.18
- pIC50 (HL-60; HL-60, HL60, acute myeloid leukemia (Example 90 table)): 5.30
- pIC50 (MOLT4; MOLT-4, acute lymphoblastic leukemia (Example 90 table)): < 4.00
- pIC50 (MYLK4; [3]): > 7.30
- pIC50 (K562; K562, chronic myeloid leukemia (Example 90 table)): 5.06
- pIC50 (MV-4-11; MV-4-11, acute myeloid leukemia (Example 90 table)): 6.49
- pIC50 (SKNO-1; SKNO-1, acute myeloid leukemia (Example 90 table)): 4.83
- pIC50 (OCI-AML3; OCI-AML3, acute myeloid leukemia (Example 90 table)): 6.05
SMILES: c1cc(-c2ccc3nc(N4CCOCC4)ncc3c2)nc(Nc2cnn(C3CCNCC3)c2)n1 [Example 27]
- pIC50 (RIVA; lymphoma (Example 90 table)): 5.04
- pIC50 (SET-2; SET-2, acute myeloid leukemia (Example 90 table)): 6.19
- pIC50 (KMS12PE; [2]): 5.55
- pIC50 (HEL; acute myeloid leukemia (Example 90 table)): < 4.00
- pIC50 (KMS12BM; [2]): 5.55
- pIC50 (MM-M1; MM-M1, multiple myeloma (Example 90 table)): 5.09
- pIC50 (TF1; TF1, acute myeloid leukemia (Example 90 table)): 4.82
- pIC50 (HEK293T; non-hematological cell line (Example 90 table)): < 4.00
- pIC50 (LP1; LP1, multiple myeloma (Example 90 table)): 5.96
- pIC50 (OPM2; OPM2, multiple myeloma (Example 90 table)): 5.16
- pIC50 (MEC-1; MEC-1, lymphoma (Example 90 table)): 4.85
- pIC50 (Kasumi-1; Kasumi-1, acute myeloid leukemia (Example 90 table)): 6.28
- pIC50 (BJAB; lymphoma (Example 90 table)): 4.92

- pIC50 (STK17A; [1]): > 7.30
- pIC50 (MYLK4): > 7.30
SMILES: c1cc(-c2ccc3nc(N4CCOCC4)ncc3c2)nc(Nc2ccc(N3CCNCC3)cc2)n1 [Example 26]

- pIC50 (STK17A; [1]): > 7.30
- pIC50 (MYLK4): > 7.30
SMILES: c1cc(-c2ccc3nc(N4CCCC4)ncc3c2)nc(Nc2ccc(N3CCNCC3)nc2)n1 [Example 4]

- pIC50 (STK17A; [1]): < 7.00
SMILES: CC(C)NC(=O)c1cccc(Nc2nccc(-c3ccc4nc(N5CCCC5)ncc4c3)n2)c1 [Example 6]

- pIC50 (STK17A; [1]): > 7.30
- pIC50 (Jurkat; acute lymphoblastic leukemia, cell viability, 72 hours): 4.59
- pIC50 (MOLM-13; MOLM-13, acute myeloid leukemia, cell viability, 72 hours): 6.03
- pIC50 (U266B1; U266B1, multiple myeloma, cell viability, 72 hours): < 4.00
- pIC50 (MDSL): < 4.00
- pIC50 (K562 SF3B1 K666N): 6.74
- pIC50 (NALM-6 SF3B1 K666N): 6.04
- pIC50 (RS4; 11; RS4, 11, acute lymphoblastic leukemia, cell viability, 72 hours): 5.08
- pIC50 (HEL92.1.7): 6.11
- pIC50 (RPMI8226; RPMI8226, multiple myeloma, cell viability, 72 hours): 5.05
- pIC50 (THP-1; THP-1, acute myeloid leukemia, cell viability, 72 hours): 4.70
- pIC50 (SKMM2; SKMM2, multiple myeloma, cell viability, 72 hours): < 4.00
- pIC50 (HL-60; HL-60, acute myeloid leukemia, cell viability, 72 hours): < 4.00
- pIC50 (MOLT4; MOLT-4, MOLT4, acute lymphoblastic leukemia, cell viability, 72 hours): 4.79
- pIC50 (MYLK4): 7.00 to 7.30
- pIC50 (K562; K562, chronic myeloid leukemia, cell viability, 72 hours): 5.32
- pIC50 (MV-4-11; MV-4-11, acute myeloid leukemia, cell viability, 72 hours): 5.43
- pIC50 (NALM-6): 5.26
- pIC50 (SKNO-1; SKNO-1, acute myeloid leukemia, cell viability, 72 hours): 4.77
- pIC50 (OCI-AML3; OCI-AML3, acute myeloid leukemia, cell viability, 72 hours): < 4.00
SMILES: CC(C)NC(=O)c1ccc(Nc2nccc(-c3ccc4nc(N5CCCC5)ncc4c3)n2)cc1 [Example 7]
- pIC50 (RIVA; [4]): < 4.00
- pIC50 (SET-2; SET-2, acute myeloid leukemia, cell viability, 72 hours): 5.43
- pIC50 (KMS12PE; [5]): < 4.00
- pIC50 (HEL; acute myeloid leukemia, cell viability, 72 hours): 5.44
- pIC50 (KMS12BM; [5]): 5.61
- pIC50 (MM-M1; MM-M1, multiple myeloma, cell viability, 72 hours): < 4.00
- pIC50 (TF1; TF1, acute myeloid leukemia, cell viability, 72 hours): < 4.00
- pIC50 (HEK293T; non-hematological cell line, cell viability, 72 hours): < 4.00
- pIC50 (LP1; LP1, multiple myeloma, cell viability, 72 hours): 4.50
- pIC50 (OPM2; OPM2, multiple myeloma, cell viability, 72 hours): 4.64
- pIC50 (MEC-1; MEC-1, lymphoma, cell viability, 72 hours): < 4.00
- pIC50 (Kasumi-1; Kasumi-1, acute myeloid leukemia, cell viability, 72 hours): 5.09
- pIC50 (BJAB; [4]): < 4.00

- pIC50 (DDR1): 7.00 to 7.30
- pIC50 (STK17A; [1]): > 7.30
- pIC50 (MYLK4; [3]): > 7.30
SMILES: c1cc(-c2ccc3nc(N4CCCC4)ncc3c2)nc(Nc2cnn(C3CCNCC3)c2)n1 [Example 3]
